Earlier results, collected in article PMC9370779, “Traditional Medicinal Uses, Phytochemistry, Biological Properties, and Health Applications of Vitex sp” (Plants, 2022).
“Also recorded” adds a separate entry of the source. Like-named read-outs stand apart in the source and are kept apart here. Blank lines part the entries; values can stand above or below the molecule they belong to.

Experiments:
[1] = set-up: method as in PMID 26034885
[2] = tested on: human colorectal carcinoma (HCT-116) cells; set-up: method as in PMID 26034885
[3] = tested on: human fetal lung fibroblast (MRC15) cells; set-up: method as in PMID 26034885
[4] = set-up: method as in doi:10.1016/j.phytol.2019.11.018
cyclooxygenase-1 (COX-1) = tested on: cyclooxygenase-1 (COX-1); set-up: method as in PMID 11842334
[5] = tested on: African green monkey kidney (Vero) cell lines; set-up: method as in PMID 11842334
[6] = set-up: method as in PMID 23150078; conditions: 100 mg/kg dose
[7] = set-up: method as in PMID 29343985; conditions: mice, acetic acid abdomen constriction
[8] = set-up: method as in PMID 29343985; conditions: mice, carrageenan paw oedema
[9] = set-up: method as in PMID 10579867
[10] = tested on: hepatocyte-derived carcinoma (HuH-7) cells; set-up: method as in PMID 18595136
[11] = tested on: nuclear factor-kappa B (NF-κB) pathway in human embryonic kidney (HEK 293) cells; set-up: method as in PMID 29996686; conditions: TNF-α-induced
NO production = tested on: NO production; set-up: method as in PMID 27535293; conditions: up to a concentration of 100 µM
[12] = tested on: lymphocytic leukemia (P388) cells; set-up: method as in PMID 9332026
[13] = set-up: method as in PMID 27118321; conditions: ABTS stated for 131
[14] = read-out: antioxidant effects, IC50 value
[15] = tested on: LPS-induced NO production; set-up: method as in doi:10.1177/1934578X19848178; conditions: at lower doses/concentrations
[16] = not given; remark: listed apart in the source
[17] = tested on: LPS-stimulated NO production
[18] = tested on: lipopolysaccharide-induced nitric oxide (NO) production; set-up: method as in doi:10.1002/hlca.201600022

Structure (SMILES): C=C(CC(=O)O)C(=O)C[C@H]1C(=C)CC[C@H]2C(C)(C)CCC[C@]12C [Compound 76, vitexolin B]
antibacterial activity [1]: moderate antibacterial | cytotoxic activity against HCT-116 cells [2]: cytotoxic activities; also recorded: cytotoxic activity | cytotoxic activity against MRC15 cells [3]: cytotoxic activities; also recorded: cytotoxic activity

Structure (SMILES): C=C1CCC2C(C)(C)CCCC2(C)C1CC(O)C1=CC(=O)OC1 (centres unmarked) [Compound 74, vitexolide E]
antibacterial activity [1]: moderate antibacterial | cytotoxic activity against HCT-116 cells [2]: cytotoxic activities; also recorded: cytotoxic activity | cytotoxic activity against MRC15 cells [3]: cytotoxic activities; also recorded: cytotoxic activity

Structure (SMILES): COC1CC2C(O)C=C(COC(=O)c3ccc(O)cc3)C2C(OC)O1 (centres unmarked) [Compound 23, ishindacin A]
percentage scavenging activities on stable free radicals [4]: 27.14%

Structure (SMILES): CO[C@H]1CC2C(C=O)=C(C)CC2O1 (some centres unmarked) [Compound 6, Tarumal]
COX-1 inhibition (in words) (cyclooxygenase-1 (COX-1)): low inhibition | cytotoxicity against Vero cell lines [5]: no cytotoxicity

Structure (SMILES): CC1(C)CC[C@@H]([C@@H](CO)C2CC[C@@]3(O)C4=CC(=O)[C@@H]5C[C@@H](O)[C@@H](O)C[C@]5(C)C4CC[C@]23C)O1 (stereo partly drawn) [Compound 112, 11β-hydroxy-20-deoxyshidasterone]
anti-inflammatory activity in rat paw oedema development assay [6]: showed anti-inflammatory activity; also recorded: Exhibited anti-inflammatory activity in rat paw oedema development assay at 100 mg/kg dose

Structure (SMILES): COc1ccc2oc(CC(O)c3cccc(C(=O)O)c3)cc(=O)c2c1O (centres unmarked) [Compound 161]
antinociceptive action [7]: successful in reducing nociception and inflammation; also recorded: The derivatives from V. negundo L. were able to reduce inflammation, and nociception, and could be used as a potential source of antinociceptive and anti-inflammatory candidates | anti-inflammatory activity [8]: successful in reducing nociception and inflammation; also recorded: The derivatives from V. negundo L. were able to reduce inflammation, and nociception, and could be used as a potential source of antinociceptive and anti-inflammatory candidates

Structure (SMILES): COC1CC2(CCC3(O2)C(C)CC(OC(C)=O)C2C(C)(C)CCCC23C)C(OC)O1 (centres unmarked) [Compound 32]
antioxidant activity [9]: did not exhibit any activities

Structure (SMILES): C[C@]1(O)CC[C@@H]2C(C(=O)O)=CO[C@@H](O[C@@H]3O[C@H](CO)[C@@H](O)[C@H](O)[C@H]3OC(=O)c3ccc(O)cc3)[C@@H]21 [Compound 1, 2-p-hydroxybenzoyl mussaenosidic acid]
protective effects against CCl4-induced toxicity in HuH-7 cells and oxidative stress [10]: Showed protective effects against CCl4-induced toxicity in HuH-7 cells and oxidative stress

Structure (SMILES): CC(=O)OC1CC(C)C(O)(CCC2=CC(=O)OC2)C2(C)CCCC(C)(C)C12 (centres unmarked) [Compound 95, vitexilactone D]
inhibition rates of NF-κB activation [11]: 57.30 ± 15.70

Structure (SMILES): CC1(C)CC[C@@H]([C@@](O)(CO)C2CC[C@@]3(O)C4=CC(=O)[C@@H]5C[C@@H](O)[C@@H](O)C[C@]5(C)C4CC[C@]23C)O1 (some centres unmarked) [Compound 111, 21-hydroxyshidasterone]
anti-inflammatory activity in rat paw oedema development assay [6]: showed anti-inflammatory activity; also recorded: Exhibited anti-inflammatory activity in rat paw oedema development assay at 100 mg/kg dose

Structure (SMILES): O=C(OCC1=C[C@@H](O)[C@@H]2C=CO[C@@H](O[C@@H]3O[C@H](COC(=O)c4ccc(O)cc4)[C@@H](O)[C@H](O)[C@H]3O)[C@H]12)c1ccc(O)cc1 [Compound 21, 10-p-hydroxybenzoyl-6β-hydroxyiridoid 1-O-β-D-(6′-O-p-hydroxybenzoyl)glucopyranoside]
inhibition of NO production (NO production): did not inhibit; also recorded: No inhibitory activity on NO production

Structure (SMILES): C=C1CCC2C(C)(C)CCCC2(C)C1CC(O)C1=CC(=O)OC1O (centres unmarked) [Compound 71, 12-epivitexolide A]
antibacterial activity [1]: moderate antibacterial | cytotoxic activity against HCT-116 cells [2]: cytotoxic activities; also recorded: cytotoxic activity | cytotoxic activity against MRC15 cells [3]: cytotoxic activities; also recorded: cytotoxic activity

Structure (SMILES): O=C(C=Cc1ccc(O)c(O)c1)OC1C(c2c(O)cc3oc(-c4ccc(O)c(O)c4)cc(=O)c3c2O)OC(CO)C(O)C1O (stereo not drawn) [Compound 117, luteolin 6-C-(2″-O-trans-caffeoylglucoside)]
cytotoxicity against P388 cells, IC50 values [12]: 56 µg/mL

Structure (SMILES): O=C(C=Cc1ccc(O)c(O)c1)OCC1OC(c2c(O)cc3oc(-c4ccc(O)c(O)c4)cc(=O)c3c2O)C(O)C(O)C1O (stereo not drawn) [Compound 116, luteolin 6-C-(6″-O-trans-caffeoylglucoside)]
cytotoxicity against P388 cells, IC50 values [12]: 14 µg/mL

Structure (SMILES): CC(C(=O)O)c1ccc(-c2ccccc2)c(F)c1 (centres unmarked) [flurbiprofen]
symptoms of mastalgia (cyclic mastalgia, premenopausal women, V. agnus-castus fruit 40 mg): significant reduction | harmful effects (in vivo): no harmful effects

Structure (SMILES): CO[C@H]1C[C@@H]2[C@@H](C(COC(=O)c3ccc(O)cc3)=C[C@H]2O)[C@H](OC)O1 [Compound 24, isonishindacin A]
percentage scavenging activities on stable free radicals [4]: 25.80%

Structure (SMILES): COc1cc(C(=O)OC2C[C@@H](O)[C@@H]3C=CO[C@@H](C[C@@H]4O[C@H](CO)[C@@H](O)[C@H](O)[C@H]4O)[C@H]23)ccc1O (some centres unmarked) [Compound 7, pedunculariside]
IC50 value, inhibition of COX-2 (cyclooxygenase-2 (COX-2)): 150 ± 210 µg/mL | inhibition of COX-2 (in words) (cyclooxygenase-2 (COX-2)): preferential inhibition of COX-2 | COX-1 inhibition (in words) (cyclooxygenase-1 (COX-1)): low | COX-1 inhibition (in words) (cyclooxygenase-1 (COX-1); listed as pedunculariside): little inhibitory effect | cytotoxicity against Vero cell lines [5]: no cytotoxicity

Structure (SMILES): COc1cc(-c2c(O)c(C(=O)O)cc3cc(OC)c(O)cc23)ccc1O [Compound 131, vitexnegheteroin G]
antioxidant activity [13]: antioxidant activity; also recorded: Exhibited antioxidant activities using ABTS scavenging activities

IC50 [14]: > 20 µM | inhibitory effects on α-glucosidase (α-glucosidase): moderate inhibitory effects
Structure (SMILES): C=C1CC[C@@H]2C(C(=O)O)=CO[C@@H](O[C@@H]3O[C@H](COC(=O)c4ccc(O)cc4)[C@@H](O)[C@H](O)[C@H]3O)[C@H]12 [Compound 19, vitexnegheteroin K]

Structure (SMILES): COC1C(COC(=O)C=Cc2ccc(O)c(O)c2)OC(c2c(O)cc3oc(-c4ccc(O)c(O)c4)cc(=O)c3c2O)C(O)C1O (stereo not drawn) [Compound 115, luteolin 6-C-(4″-methyl-6″-O-trans-caffeoylglucoside)]
cytotoxicity against P388 cells, IC50 values [12]: 7.6 µg/mL

Structure (SMILES): CCOC1C=C(CCC2(O)C(C)CC(OC(C)=O)C3C(C)(C)CCCC32C)C(=O)O1 (centres unmarked) [Compound 94, viterotulin C]
inhibition rates of NF-κB activation [11]: 66.09 ± 11.49

Structure (SMILES): COc1ccc([C@H]2c3c(ccc(O)c3OC)C=C(C=O)[C@@H]2CO)cc1OC [Compound 138, 6-hydroxy-4-(3,4-dimethoxyphenyl)-3-hydroxymethyl-5-methoxy-3,4-dihydro-2-napthaldehyde]
inhibitory effects on NO generation [15]: minor effects of inhibitory

Structure (SMILES): COC(=O)c1cccc(CCc2cc(=O)c3c(O)c(OC)ccc3o2)c1 [Compound 160]
antinociceptive action [7]: successful in reducing nociception and inflammation; also recorded: The derivatives from V. negundo L. were able to reduce inflammation, and nociception, and could be used as a potential source of antinociceptive and anti-inflammatory candidates | anti-inflammatory activity [8]: successful in reducing nociception and inflammation; also recorded: The derivatives from V. negundo L. were able to reduce inflammation, and nociception, and could be used as a potential source of antinociceptive and anti-inflammatory candidates

IC50 [14]: > 20 µM | inhibitory effects on α-glucosidase (α-glucosidase): moderate inhibitory effects
Structure (SMILES): C[C@@H]1CC[C@@H]2C(C(=O)O)=CO[C@@H](O[C@@H]3O[C@H](COC(=O)c4ccc(O)cc4)[C@@H](O)[C@H](O)[C@H]3O)[C@H]12 [Compound 20, vitexnegheteroin L]

Structure (SMILES): CO[C@H]1O[C@H](COC(=O)c2ccc(O)cc2)[C@@H](O)[C@H](O)[C@H]1O [Compound 155, methyl (6-O-4-hydroxybenzoyl)-α-D-glucopyranoside]
antioxidant activity via ABTS radical scavenging assay [16]: Exhibited antioxidant and NO inhibitory activities. | inhibitory activity on LPS-stimulated NO production [17]: Exhibited antioxidant and NO inhibitory activities.

Structure (SMILES): COc1cc2c(cc1O)C(c1ccc(OC)c(OC)c1)C(CO)C(C=O)=C2 (centres unmarked) [Compound 137, 6-hydroxy-4-(3,4-dimethoxyphenyl)-3-hydroxymethyl-7-methoxy-3,4-dihydro-2-naphthaldehyde]
inhibitory effects on NO generation [15]: minor effects of inhibitory

Structure (SMILES): O=C(OCC1=CC(=O)C2C=CO[C@@H](O[C@@H]3O[C@H](CO)[C@@H](O)[C@H](O)[C@H]3O)C12)c1ccc(O)cc1 (some centres unmarked) [Compound 18, agnusoside]
anti-inflammatory activity, LPS-induced NO production [18]: moderate anti-inflammatory activity; also recorded: Exhibited moderate anti-inflammatory activity using NO production induced by lipopolysaccharide
